How the values were obtained:
[1] = molecular target: T1, recombinant Human Phosphodiesterase B2 (PDE4B2) (Homo sapiens, UniProt Q07343); experiment: Human Phosphodiesterase B2 Alpha Screen Assay; type: biochemical; settings: Alpha Screen cAMP assay
Procedure: Human Phosphodiesterase B2 Alpha Screen Assay
The assay uses recombinant Human Phosphodiesterase B2 (PDE4B2) produced in house (PrAZL0133), stored at −20° C. The substrate uses cAMP, part of the Alpha Screen cAMP kit (Perkin Elmer, Cat# 6760625M), stored at 4° C. The Alpha Screen kit also includes biotinylated cAMP, acceptor and donor beads.
The assay additions were as follows: Test compounds and controls were added to white 384-well flat-bottom plates (Greiner, Cat# 781075), 0.2 μl in 100% DMSO, followed by 10 μl PDE4B2 in reaction buffer. The reaction buffer constitution was: 50 mM Tris (pH 7.5), 8.3 mM MgCl2, 1.7 mM EGTA and 0.01% (w/v) Brij®35. The enzyme and the compounds were incubated at room temperature for 15 minutes. Then 10 μl cAMP in reaction buffer was added. The assay was stopped after 60 minutes incubation at room temperature by adding 10 μl acceptor beads in detection buffer with 40 mM EDTA. The detection buffer constitution was: 5 mM Tris (pH 7.5), 0.1% (w/v) BSA and 0.1% (v/v) Tween 20. This addition followed by an addition of 10 μl donor beads in detection buffer, with biotinylated cAMP. The plates were then incubated, dark at room temperature, for 5 hours followed by measurement on a Fusion™-α analyser. IC50 values (presented in Table 4) were determined using Xlfit curve fitting using model 205.

[2] = molecular target: T1, recombinant Human Phosphodiesterase B2 (PDE4B2); experiment: Human Phosphodiesterase B2 Radiometric Assay; type: biochemical; settings: radiometric SPA assay, [3H]cyclic AMP 8 nM, read-out: PDE4B2 pIC50 (converted)
Procedure: Human Phosphodiesterase B2 Radiometric Assay
The assay uses recombinant Human Phosphodiesterase B2 (PDE4B2) produced in house (PrAZL0163), stored at −20° C. This assay is based on the observation that 5′AMP, the product of the reaction catalysed by PDE4, binds preferentially to yttrium silicate SPA beads (Amersham Biosciences, UK) compared to the substrate, cAMP. Compounds at the appropriate concentration were preincubated at 30 C for 30 min with an assay buffer containing 50 mM HEPES (pH 7.5), 8.3 mM MgCl2, 1.7 mM EGTA, 0.01% (w/v) Brij®35 and 0.1 μg/mL recombinant PDE4B2. The reaction was started by the addition of [3H]cyclic AMP to give a final concentration of 8 nM, and was stopped 20 minutes after the addition of the substrate by the addition of yttrium silicate SPA beads containing 18 mM Zn SO4. Bound [3H]cyclic AMP was measured using a Topcount NXT (Packard Bioscience, UK). pIC50 values (presented in Table 5) were determined using Xlfit3 curve fitting, using model 205.

T1 sequence (Q07343 1-564 isoform Q07343-2): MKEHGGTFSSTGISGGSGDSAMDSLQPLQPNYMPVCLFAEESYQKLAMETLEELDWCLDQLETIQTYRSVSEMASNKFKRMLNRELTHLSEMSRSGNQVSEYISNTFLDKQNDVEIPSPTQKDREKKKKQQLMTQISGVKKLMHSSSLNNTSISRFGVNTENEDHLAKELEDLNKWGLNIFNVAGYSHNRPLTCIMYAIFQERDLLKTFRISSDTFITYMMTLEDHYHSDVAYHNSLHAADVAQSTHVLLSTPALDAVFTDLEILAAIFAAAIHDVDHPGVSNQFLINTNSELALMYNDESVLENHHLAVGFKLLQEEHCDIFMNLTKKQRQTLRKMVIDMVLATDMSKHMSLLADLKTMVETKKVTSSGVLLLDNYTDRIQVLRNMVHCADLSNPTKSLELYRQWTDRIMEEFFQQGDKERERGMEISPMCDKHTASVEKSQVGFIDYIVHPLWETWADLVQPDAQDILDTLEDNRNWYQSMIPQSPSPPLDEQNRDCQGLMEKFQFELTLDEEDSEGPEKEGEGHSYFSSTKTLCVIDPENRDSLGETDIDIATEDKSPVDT

O=C(N[C@H]1CC[C@@H](n2c(=O)c3cc(F)cnc3n(C3CCSCC3)c2=O)CC1)c1ncccc1O [Example 20, N-{cis-4-[6-fluoro-2,4-dioxo-1-(tetrahydro-2H-thiopyran-4-yl)-1,4-dihydropyrido[2,3-d]pyrimidin-3(2H)-yl]cyclohexyl}-3-hydroxypyridine-2-carboxamide]
IC50 [1]: 5.9 nM

CC(C)CC(=O)N[C@H]1CC[C@@H](n2c(=O)c3cc(F)cnc3n(C3CCSCC3)c2=O)CC1 [Example 21, N-{cis-4-[6-fluoro-2,4-dioxo-1-(tetrahydro-2H-thiopyran-4-yl)-1,4-dihydropyrido[2,3-d]pyrimidin-3(2H)-yl]cyclohexyl}-3-methylbutanamide]
IC50 [1]: 4.72 nM

O=C(N[C@H]1CC[C@@H](n2c(=O)c3cc(F)cnc3n(C3CCSCC3)c2=O)CC1)c1ccccc1 [Example 23, N-{cis-4-[6-fluoro-2,4-dioxo-1-(tetrahydro-2H-thiopyran-4-yl)-1,4-dihydropyrido[2,3-d]pyrimidin-3(2H)-yl]cyclohexyl}benzamide]
IC50 [1]: 2.72 nM

O=C(N[C@H]1CC[C@@H](n2c(=O)c3cc(F)cnc3n(C3CCSCC3)c2=O)CC1)c1ccco1 [Example 24, N-{cis-4-[6-fluoro-2,4-dioxo-1-(tetrahydro-2H-thiopyran-4-yl)-1,4-dihydropyrido[2,3-d]pyrimidin-3(2H)-yl]cyclohexyl}-2-furamide]
IC50 [1]: 2.76 nM

O=C(N[C@H]1CC[C@@H](n2c(=O)c3cc(F)cnc3n(C3CCSCC3)c2=O)CC1)c1cccn2ccnc12 [Example 25, N-{cis-4-[6-fluoro-2,4-dioxo-1-(tetrahydro-2H-thiopyran-4-yl)-1,4-dihydropyrido[2,3-d]pyrimidin-3(2H)-yl]cyclohexyl}imidazo[1,2-a]pyridine-8-carboxamide]
IC50 [1]: 5.59 nM

O=C(N[C@H]1CC[C@@H](n2c(=O)c3cc(F)cnc3n(C3CCSCC3)c2=O)CC1)c1cc(CO)ccc1O [Example 26, N-{cis-4-[6-fluoro-2,4-dioxo-1-(tetrahydro-2H-thiopyran-4-yl)-1,4-dihydropyrido[2,3-d]pyrimidin-3(2H)-yl]cyclohexyl}-2-hydroxy-5-(hydroxymethyl)benzamide]
IC50 [1]: 4.31 nM

O=C(N[C@H]1CC[C@@H](n2c(=O)c3cc(F)cnc3n(C3CCSCC3)c2=O)CC1)c1cn2c(n1)CCCC2 [Example 33, N-{cis-4-[6-fluoro-2,4-dioxo-1-(tetrahydro-2H-thiopyran-4-yl)-1,4-dihydropyrido[2,3-d]pyrimidin-3(2H)-yl]cyclohexyl}-5,6,7,8-tetrahydroimidazo[1,2-a]pyridine-2-carboxamide]
IC50 [2]: 0.398 nM

O=C(N[C@H]1CC[C@@H](n2c(=O)c3cc(F)cnc3n(C3CCSCC3)c2=O)CC1)c1cn2cc(F)ccc2n1 [Example 41, 6-fluoro-N-{cis-4-[6-fluoro-2,4-dioxo-1-(tetrahydro-2H-thiopyran-4-yl)-1,4-dihydropyrido[2,3-d]pyrimidin-3(2H)-yl]cyclohexyl}imidazo[1,2-a]pyridine-2-carboxamide]
IC50 [2]: 0.126 nM

O=C(N[C@H]1CC[C@@H](n2c(=O)c3cc(F)cnc3n(C3CCSCC3)c2=O)CC1)C(O)c1ccc(O)cc1 (stereo partly drawn) [Example 64b, N-{cis-4-[6-fluoro-2,4-dioxo-1-(tetrahydro-2H-thiopyran-4-yl)-1,4-dihydropyrido[2,3-d]pyrimidin-3(2H)-yl]cyclohexyl}-2-hydroxy-2-(4-hydroxyphenyl)acetamide]
IC50 [2]: 0.316 nM

CN(C)c1ccc(C(=O)NC2CCC(n3c(=O)c4cc(F)cnc4n(C4CCSCC4)c3=O)CC2)cc1 (stereo not shown) [Example 67, 4-dimethylamino-N-[4-(9-fluoro-2,4-dioxo-5-tetrahydrothiopyran-4-yl-3,5,7-triazabicyclo[4.4.0]deca-6,8,10-trien-3-yl)cyclohexyl]benzamide]
IC50 [2]: 0.501 nM

— patent US20090233907A1, “Pyridopyrimidine Derivatives and Their Use as PDE4 Inhibitors” (ASTRAZENECA AB, priority 2006, published 2009)
